Test results reported in patent publication EP4748840A1, “IMIDAZO[1,2-A]PYRIDINE TYPE IRAK DEGRADATION AGENT AND USE THEREOF” (TAINUORUI (TIANJIN) BIOTECHNOLOGY CO., LTD, priority 2023, dated 2025).

Columns and labels:
IRAK4 = target: T1, IRAK4 (Homo sapiens, UniProt Q9NWZ3); assay: HiBiT-based intracellular degradation assay of THP1-HIBiT-IRAK4 cells; assay type: cell-based; details: half-maximal degradation concentration of IRAK4 protein, 24 h incubation
T1 construct: expressed in transfected cells; host or cells: THP1 (THP1-HIBiT-IRAK4 engineered line)
T1 sequence (Q9NWZ3 1-460): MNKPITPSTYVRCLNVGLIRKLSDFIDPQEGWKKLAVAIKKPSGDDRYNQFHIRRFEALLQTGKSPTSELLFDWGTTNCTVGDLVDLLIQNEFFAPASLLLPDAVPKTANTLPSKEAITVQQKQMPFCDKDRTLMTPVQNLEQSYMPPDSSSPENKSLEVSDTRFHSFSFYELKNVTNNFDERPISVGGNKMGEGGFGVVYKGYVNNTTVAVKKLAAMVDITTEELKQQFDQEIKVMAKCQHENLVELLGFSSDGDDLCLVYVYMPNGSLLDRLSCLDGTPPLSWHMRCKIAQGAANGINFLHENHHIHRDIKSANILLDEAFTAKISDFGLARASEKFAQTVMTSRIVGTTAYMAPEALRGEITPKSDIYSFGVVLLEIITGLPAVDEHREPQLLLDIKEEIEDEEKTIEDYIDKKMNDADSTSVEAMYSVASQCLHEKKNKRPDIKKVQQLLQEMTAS
Procedure: HiBiT-based intracellular degradation assay of THP1-HIBiT-IRAK4 cells
THP1-HIBiT-IRAK4 cells were cultured in RPMI 1640 medium supplemented with 10% fetal bovine serum (FBS) and 1% penicillin-streptomycin (PS) (37°C and 5% CO2). The THP1-HIBiT-IRAK4 cells were inoculated in a 384-well plate at 5000 cells/40 µL/well. Compound solutions with different concentrations were added at 40 nL/well and incubated for 24 h at 37°C in 5% CO2. HiBiT lysis detection reagents were added to the wells, the plate was incubated for 30 min at room temperature, and luminescence values were read on Envision. [formula]
The DC50 (half-maximal degradation concentration) of each compound was obtained using XLfit software and the following nonlinear fitting equation: Y = bottom + (top−bottom)/(1+10^(∧)((LogDC50−X)×Hillslope)). [formula]
X denotes a log value of the compound concentration.
Y denotes the degradation rate.
Table 1 lists the results of DC50 values of IRAK4 protein degradation. […]

[1] = In vivo pharmacokinetic study in mice; details: male CD1 mice
Procedure: In vivo pharmacokinetic study
The pharmacokinetic behaviors of Example 1 and Example 15 in mice were studied using the following experimental protocol to evaluate their pharmacokinetic characteristics.
The mice had free access to food and water before the test.
(§1) Approximately 0.03 mL of venous blood was collected from the dorsal metatarsal vein of each mouse separately after 0.033 h, 0.083 h, 0.25 h, 0.5 h, 1 h, 2 h, 4 h, 8 h, and 24 h since intravenous injection. The blood was placed in an EDTA-K2 tube and centrifuged for 5 min at 4000 g and 4°C. The plasma was separated. The concentration of the compound in the plasma was determined through liquid chromatography-tandem mass spectrometry.
as §1, with “after” for “after 0.033 h,”, “oral administration.” for “intravenous injection.”

[2] = mouse, plasma, Intravenous Injection (2 mg/kg)

For CC(C)(O)c1cc2nc(C3CCN(CC4CCN(c5ccc6c(c5)C(=O)N(C5CCC(=O)NC5=O)C6=O)CC4)CC3)cn2cc1NC(=O)c1cccc(C(F)(F)F)n1 (stereo not shown) [Example 1], the DC50 (IRAK4) was 4.53 nM, the F ([1]; oral bioavailability, Oral Administration (20 mg/kg) vs Intravenous Injection (2 mg/kg)) was 12.1% and the clearance [1, 2] was 59.5 mL/min/kg. For the same compound, the half-life [1, 2] was 7.88 h, the half-life ([1]; mouse, plasma, Oral Administration (20 mg/kg)) was 6.81 h and the AUC(0-t) ([1]; mouse, Intravenous Injection (2 mg/kg), plasma) was 550 ng·h/mL. The AUC(0-t) ([1]; mouse, Oral Administration (20 mg/kg), plasma) was 626 ng·h/mL.
With CC(C)(O)c1cc2nc(C3CCN(CCC4CCN(c5ccc6c(c5)C(=O)N(C5CCC(=O)NC5=O)C6=O)CC4)CC3)cn2cc1NC(=O)c1cccc(C(F)(F)F)n1 (stereo not shown) [Example 18, N-(2-(1-(2-(1-(2-(2,6-dioxopiperidin-3-yl)-1,3-dioxoisoindolin-5-yl)piperidin-4-yl)ethyl)piperidin-4-yl)-7-(2-hydroxypropan-2-yl)imidazo[1,2-a]pyridin-6-yl)-6-(trifluoromethyl)pyridine-2-carboxamide] the DC50 (IRAK4) was 4.29 nM.
CC(C)(O)c1cc2nc(C3CCN(CCCN4CCN(c5ccc6c(c5)C(=O)N(C5CCC(=O)NC5=O)C6=O)CC4)CC3)cn2cc1NC(=O)c1cccc(C(F)(F)F)n1 (stereo not shown) [Example 19, N-(2-(1-(3-(4-(2-(2,6-dioxopiperidin-3-yl)-1,3-dioxoisoindolin-5-yl)piperazin-1-yl)propyl)piperidin-4-yl)-7-(2-hydroxypropan-2-yl)imidazo[1,2-a]pyridin-6-yl)-6-(trifluoromethyl)pyridine-2-carboxamide] showed a DC50 (IRAK4) of 1.95 nM.
For CC(C)(O)c1cc2nc(C3CCN(C4CN(C5CCN(c6ccc7c(c6)C(=O)N(C6CCC(=O)NC6=O)C7=O)CC5)C4)CC3)cn2cc1NC(=O)c1cccc(C(F)(F)F)n1 (stereo not shown) [Example 20, N-(2-(1-(1-(1-(2-(2,6-dioxopiperidin-3-yl)-1,3-dioxoisoindolin-5-yl)piperidin-4-yl)azetidin-3-yl)piperidin-4-yl)-7-(2-hydroxypropan-2-yl)imidazo[1,2-a]pyridin-6-yl)-6-(trifluoromethyl)pyridine-2-carboxamide], the DC50 (IRAK4) was 1.35 nM.
In the case of CC(C)(O)c1cc2nc(C3CCN(CCN4CC5(C4)CN(c4ccc6c(c4)C(=O)N(C4CCC(=O)NC4=O)C6=O)C5)CC3)cn2cc1NC(=O)c1cccc(C(F)(F)F)n1 (stereo not shown) [Example 21, N-(2-(1-(2-(6-(2-(2,6-dioxopiperidin-3-yl)-1,3-dioxoisoindolin-5-yl)-2,6-diazaspiro[3.3]heptan-2-yl)ethyl)piperidin-4-yl)-7-(2-hydroxypropan-2-yl)imidazo[1,2-a]pyridin-6-yl)-6-(trifluoromethyl)pyridine-2-carboxamide], the DC50 (IRAK4) is reported as 2.3 nM.
CC(C)(O)c1cc2nc(C3CCN(CCN4CCN(c5cc6c(cc5F)C(=O)N(C5CCC(=O)NC5=O)C6=O)CC4)CC3)cn2cc1NC(=O)c1cccc(C(F)(F)F)n1 (stereo not shown) [Example 22, N-(2-(1-(2-(4-(2-(2,6-dioxopiperidin-3-yl)-6-fluoro-1,3-dioxoisoindolin-5-yl)piperazin-1-yl)ethyl)piperidin-4-yl)-7-(2-hydroxypropan-2-yl)imidazo[1,2-a]pyridin-6-yl)-6-(trifluoromethyl)pyridine-2-carboxamide] showed a DC50 (IRAK4) of 4.76 nM.
CC(C)(O)c1cc2nc(C3CCN(CC4CCN(c5cc6c(cc5F)C(=O)N(C5CCC(=O)NC5=O)C6)CC4)CC3)cn2cc1NC(=O)c1cccc(C(F)(F)F)n1 (stereo not shown) [Example 23, N-(2-(1-((1-(2-(2,6-dioxopiperidin-3-yl)-6-fluoro-1-oxoisoindolin-5-yl)piperidin-4-yl)methyl)piperidin-4-yl)-7-(2-hydroxypropan-2-yl)imidazo[1,2-a]pyridin-6-yl)-6-(trifluoromethyl) pyridine-2-carboxamide] gave a DC50 (IRAK4) of 0.95 nM.
Work on CC(C)(O)c1cc2nc(C3CCN(CC4C5CN(c6ccc7c(c6)C(=O)N(C6CCC(=O)NC6=O)C7=O)CC45)CC3)cn2cc1NC(=O)c1cccc(C(F)(F)F)n1 (stereo not shown) [Example 24, N-(2-(1-((3-(2-(2,6-dioxopiperidin-3-yl)-1,3-dioxoisoindolin-5-yl)-3-azabicyclo[3.1.0]hexan-6-yl)methyl)piperidin-4-yl)-7-(2-hydroxypropan-2-yl)imidazo[1,2-a]pyridin-6-yl)-6-(trifluoromethyl)pyridine-2-carboxamide] yielded a DC50 (IRAK4) of 1.87 nM.
For CC(C)(O)c1cc2nc(C3CCN(CC4CCN(c5cc6c(cc5F)C(=O)N([C@@H]5CCC(=O)NC5=O)C6=O)CC4)CC3)cn2cc1NC(=O)c1cccc(C(F)(F)F)n1 [Example 25, (R)-N-(2-(1-((1-(2-(2,6-dioxopiperidin-3-yl)-6-fluoro-1,3-dioxoisoindolin-5-yl)piperidin-4-yl)methyl)piperidin-4-yl)-7-(2-hydroxypropan-2-yl)imidazo[1,2-a]pyridin-6-yl)-6-(trifluoromethyl)pyridine-2-carboxamide], the DC50 (IRAK4) was 12.8 nM.
Work on CC(C)(O)c1cc2nc(C3CCN(CC4CCN(c5cc6c(cc5F)C(=O)N([C@H]5CCC(=O)NC5=O)C6=O)CC4)CC3)cn2cc1NC(=O)c1cccc(C(F)(F)F)n1 [Example 26, (S)-N-(2-(1-((1-(2-(2,6-dioxopiperidin-3-yl)-6-fluoro-1,3-dioxoisoindolin-5-yl)piperidin-4-yl)methyl)piperidin-4-yl)-7-(2-hydroxypropan-2-yl)imidazo[1,2-a]pyridin-6-yl)-6-(trifluoromethyl)pyridine-2-carboxamide] yielded a DC50 (IRAK4) of 2.15 nM.
